Patent US20200325239A1, “Modulation of Aminopeptidase N/CD13 and Rheumatoid Arthritis” (THE REGENTS OF THE UNIVERSITY OF MICHIGAN, priority 2016, published 2020)

Legend:
Type in all cases: cell-based, human
RA FLS [1] = assay: CD13 shedding from FLS cultures with protease inhibitors (CD13 ELISA of supernatant and cell lysate); conditions: 48 hours
Method: Fibroblast-like synoviocytes (FLS) were cultured from human synovial tissue obtained at arthroplasty or synovectomy from RA joints by digestion with 1% collagenase and separation through a 7004 cell strainer (16). […] FLS were maintained in Connaught Medical Research Laboratory (CARL) medium (20% fetal bovine serum (FBS), 2 mM L-glutamine, and 1% penicillin/streptomycin), and were used between passages 4 and 10. To avoid the confounding effect of serum CD13, cultures were moved to serum-free Dulbecco's Modified Eagle's medium/F-12 with Peprogrow serum replacement (Peprotech, Rocky Hill, N.J.) before harvesting. Some cultures were treated with protease inhibitors for 48 hours in serum-free medium: pepstatin A (Sigma-Aldrich, St. Louis, Mo.), aprotinin (Sigma-Aldrich, St. Louis, Mo.), leupeptin (Sigma-Aldrich, St. Louis, Mo.), GM6001 InSolution (EMD Millipore, Darmstadt, Germany), or E-64 (Thermo Scientific, Waltham, Mass.).
Cells were lysed in cell lysis buffer (10% NP-40, 10% PMSF, 1% Iodoacetamide, and 0.1% E-64 in TSA) for one hour on ice and spun to remove debris. FLS culture supernatants were concentrated by centrifugation through an Amicon Ultracel 30K filter (EMD Millipore, Darmstadt, Germany).
High-binding ELISA plates were coated with the anti-CD13 monoclonal antibody WM15 (Biolegend, San Diego, Calif.) in 0.1M carbonate buffer pH 9.5 overnight, and then blocked with 1× Animal Free Block (Vector Laboratories, Burlingame, Calif.) overnight. Samples were then applied to the plates either whole or diluted in block with 10 mM EDTA. A standard curve was prepared using recombinant human CD13 (R&D Systems, Minneapolis, Minn.) in block with 10 mM EDTA. 1D7 (i.e., 591.1D7.34, University of Michigan Hybridoma Core), an anti-CD13 monoclonal antibody that was recently described (10), was biotinylated (Biotin-XX Microscale Protein Labeling Kit, Life Technologies, Carlsbad, Calif.) and applied overnight (19). Streptavidin-HRP (Biolegend, San Diego, Calif.) was then added. Between steps, plates were washed with PBS plus 0.05% Tween. The plates were visualized with TMB substrate (BD Biosciences, San Jose, Calif.), stopped with 2M H2SO4, and analyzed on a colorimetric plate reader.
To test this mechanism, various protease inhibitors were added to FLS cultures, including: pepstatin A (aspartic), aprotinin (serine), leupeptin (serine/cysteine), GM6001 (metalloproteinase), and E-64 (cysteine). […] All inhibitors were used at established working concentrations.

RA FLS [2] = assay: ELISA for the secretion of CD13 from RA FLS incubated with TIMPs; conditions: 0.6 μg/ml, 48 hours, FLS from 3 RA patients
Method: To determine the role of tissue inhibitors of metalloproteinases (TIMPs) in the secretion of CD13, RA FLS (10 aliquots of 10^5, or 10^6, cells) were plated in 6-well plates in RPMI with 10% FBS. When RA FLS became 85% confluent, media was switched to RPMI containing 0.1% FBS. RA FLS were incubated with TIMP-1, TIMP-2 or both for 48 hours. ELISA was performed to determine the levels of soluble CD13 in the conditioned media. Conditioned media (100 μl/well) was added to 96-well plates (Thermo Scientific, USA) for 2 hours at room temperature. After blocking, anti-CD13 antibody, WM15, (10 μg/ml, BioLegend) was added for 2 hours at 37° C. Anti-mouse IgG HRP-linked antibody (1:1000) was added for 1 hour. After adding the TMB substrate solution (BD Biosciences) and stop solution (2N H2SO4), the optical density (OD) was measured at 450 nm by a microplate reader (BIO-TEK, USA). We used FLS from three different RA patients. Both inhibitors were used at 0.6 μg/ml. These concentrations are recommended by the manufacture to inhibit matrix metalloproteinases (MMPs).

CD13 mRNA = assay: Regulation of CD13 mRNA in RA FLS by cytokines (qRT-PCR); conditions: time course 0 to 72 hours; for CD13 mRNA in RA FLS, ratio to untreated FLS (in words): IFNγ 1000 U/ml, TNFα 10 ng/ml, IL-17 10 ng/ml
Method: FIG. 4. […] FLS were stimulated over a time course of 0-72 hours with IFNγ (1000 U/ml), TNFα (10 ng/ml), or IL-17 (10 ng/ml). Cells were harvested and processed for either mRNA (A), surface expression (B), total cell lysate CD13 (C), or total CD13 in supernatant (D). mRNA was measured by qRT-PCR. CD13 was measured on the surface with anti-CD13 (1D7) and flow cytometry. Cell lysate and supernatant CD13 concentrations were measured by CD13 ELISA. Gating was done to isolate the major cell population and exclude debris and dead cells. Data is expressed as a ratio to unstimulated FLS at the same time point in either ΔΔCt normalized to GAPD (mRNA), mean fluorescent intensity corrected for background florescence with MsIg staining (surface), or CD13 concentration in lysate or supernatant. A n=3 B-D n=1 *p≤0.05.
All procedures involving specimens obtained from human subjects were performed under a protocol approved by the University of Michigan Institutional Review Board. Fibroblast-like synoviocytes (FLS) were cultured from human synovial tissue obtained at arthroplasty or synovectomy from RA joints by digestion with 1% collagenase and separation through a […] (16). FLS were uniformly positive for the FLS marker Cadherin-11. The diagnosis of RA required at least four of the seven 1987 American College of Rheumatology criteria (17). FLS were maintained in Connaught Medical Research Laboratory ([…]) medium (20% fetal bovine serum (FBS), 2 mM L-glutamine, and 1% penicillin/streptomycin), and were used between passages 4 and 10. To avoid the confounding effect of serum CD13, cultures were moved to serum-free Dulbecco's Modified Eagle's medium/F-12 with Peprogrow serum replacement (Peprotech, Rocky Hill, N.J.) before harvesting. Some cultures were treated with protease inhibitors for 48 hours in serum-free medium: pepstatin A (Sigma-Aldrich, St. Louis, Mo.), aprotinin (Sigma-Aldrich, St. Louis, Mo.), leupeptin (Sigma-Aldrich, St. Louis, Mo.), GM6001 InSolution (EMD Millipore, Darmstadt, Germany), or E-64 (Thermo Scientific, Waltham, Mass.). Other cultures were treated with cytokines: recombinant human interferon-γ (rhIFNγ, […]), recombinant human tumor necrosis factor-α (rhTNFα, 10 ng/ml), or recombinant human interleukin-17 (rhIL-17,10 ng/ml) (Peprotech, Rocky Hill, N.J.) for 0, 0.5, 1, 2, 6, 8, 12, 24, 48, or 72 hours in serum-free medium.
mRNA was isolated from FLS (3 wells of a 6-well plate) using the RNAeasy Kit and Qiacube (Qiagen, Venlo, Netherlands). cDNA was prepared using a High Capacity cDNA Kit (Life Technologies, Carlsbad, Calif.). Quantitative reverse transcription polymerase chain reaction (qRT-PCR) was done using TaqMan Gene Expression Assays on a 7500 Real Time PCR System (Life Technologies, Carlsbad, Calif.).
CD13 is present at much higher levels in RA synovial fluid compared to OA. Cultured RA and OA FLS, however, expressed similar amounts of CD13 (10). One possible explanation for this observation is that the pro-inflammatory cytokines in the RA joint could contribute to upregulation of CD13 production by FLS. Cultured RA FLS were treated with IFNγ, TNFα, or IL-17 over a time course from 0 to 72 hours. […] Data shown are a ratio of cytokine-treated FLS CD13 mRNA to untreated FLS CD13 mRNA at the same time point.

RA FLS [3] = assay: FLS scratch-wound migration assay (relative wound density); conditions: antibodies 25 or 50 ng/ml; actinonin 10 μM, bestatin 50 μM; primarily from 36 hours to 72 hours
Method: (§1) FIG. 5. […] FLS were seeded on 96-well plates overnight. An Essen Incucyte system was used for both growth (A) and migration (B) assays. Growth was calculated as the difference in percent confluence from time 0. Migration was measured in a scratch-wound assay using relative wound density. All data are expressed as a ratio to untreated FLS of the same cell line. mean±SEM n≥4 (*p≤0.05).
RA FLS were seeded on Essen Image Lock 96-well plates (Essen Bioscience, Ann Arbor, Mich.) overnight at either 3,000 cells/well for growth or 30,000 cells/well for migration. For growth, the 20% FBS CMRL media was removed and cells were washed 1× with PBS. 100 μl of medium alone (control) or medium containing anti-CD3 (25 or 50 ng/ml, OKT3, used as a non-reactive isotype control antibody in this experiment), anti-CD13 1D7 or WM15 (Biolegend, San Diego, Calif.) (25 or 50 ng/ml), or CD13 chemical inhibitors actinonin (Sigma-Aldrich, St. Louis, Mo.) or bestatin (Sigma-Aldrich, St. Louis, Mo.) (10 μM and 50 μM, respectively) was added to the wells. Images and confluence data were collected using an Essen IncuCyte (Essen Bioscience, Ann Arbor, Mich.). For the scratch-wound migration assay, wounds were made via the Essen scratch-wound tool in the seeded 96-well plate. […] Data were collected and the confluence or relative wound density calculated by the Essen IncuCyte.

RA FLS [4] = assay: FLS growth assay (Essen IncuCyte, percent confluence); conditions: antibodies 25 or 50 ng/ml, actinonin 10 μM, bestatin 50 μM, primarily between 24 hours and 120 hours
Method: as §1
RA FLS were seeded on Essen Image Lock 96-well plates (Essen Bioscience, Ann Arbor, Mich.) overnight at either 3,000 cells/well for growth or 30,000 cells/well for migration. For growth, the 20% FBS CMRL media was removed and cells were washed 1× with PBS. 100 μl of medium alone (control) or medium containing anti-CD3 (25 or 50 ng/ml, OKT3, used as a non-reactive isotype control antibody in this experiment), anti-CD13 1D7 or WM15 (Biolegend, San Diego, Calif.) (25 or 50 ng/ml), or CD13 chemical inhibitors actinonin (Sigma-Aldrich, St. Louis, Mo.) or bestatin (Sigma-Aldrich, St. Louis, Mo.) (10 μM and 50 μM, respectively) was added to the wells. Images and confluence data were collected using an Essen IncuCyte (Essen Bioscience, Ann Arbor, Mich.). For the scratch-wound migration assay, wounds were made via the Essen scratch-wound tool in the seeded 96-well plate. Plates were then washed 2× with PBS and medium was added similar to the growth plates. Data were collected and the confluence or relative wound density calculated by the Essen IncuCyte.

FLS = assay: CD13 release and cellular CD13 after siRNA knockdown with or without GM6001 (CD13 ELISA); conditions: 25 μM GM6001, 48 hours
Method: FLS were grown to confluence, then transfected with siRNA using an Amaxa nucleofector kit. Cells were grown to 75% confluence, then switched to serum-free growth media (Peprogrow) supplemented with 1 ng/ml IL-1 and 10 ng/ml TNFα for 48 hours with or without 25 μM GM6001.
High-binding ELISA plates were coated with the anti-CD13 monoclonal antibody WM15 (Biolegend, San Diego, Calif.) in 0.1M carbonate buffer pH 9.5 overnight, and then blocked with 1× Animal Free Block (Vector Laboratories, Burlingame, Calif.) overnight. Samples were then applied to the plates either whole or diluted in block with 10 mM EDTA. A standard curve was prepared using recombinant human CD13 (R&D Systems, Minneapolis, Minn.) in block with 10 mM EDTA. […] The plates were visualized with TMB substrate (BD Biosciences, San Jose, Calif.), stopped with 2M H2SO4, and analyzed on a colorimetric plate reader.
FLS were transfected by electroporation using an Amaxa Nucleofector and the nucleofector kit for dermal fibroblasts (NHDF, Lonza, Basel, Switzerland). […] Transfection of GFP control plasmid was measured by fluorescent microscopy (EVOSfl, AMG, Mill Creek, Wash.) and flow cytometry (BD Biosciences FACSCalibur, San Jose, Calif.). Knockdown efficiency was measured by qRT-PCR of MMP14 mRNA at the time of harvest for CD13 measurements. […]

For `CC(=O)N[C@@H](CC(C)C)C(=O)N[C@@H](CC(C)C)C(=O)N[C@H](C=O)CCCNC(=N)N` [Leupeptin, leupeptin], the “increase in CD13 released” value (RA FLS [1]; FLS cultures, serum-free media, Leupeptin 10 μM, supernatant) was 48.40±14.29%.

“tissue inhibitor of metalloproteinase 1 [TIMP-1]” was tested, and the “CD13 secretion in conditioned media (OD, ELISA)” value (RA FLS [2]) was “decrease was not observed”.

For “tissue inhibitor of metalloproteinase 2 [TIMP-2]”, the “CD13 secretion in conditioned media (OD, ELISA)” value (RA FLS [2]) was “significant decrease”.

For recombinant human interferon-γ [IFNγ], the “CD13 mRNA in RA FLS, ratio to untreated FLS (in words)” value (“CD13 mRNA in RA FLS, ratio” for short) (CD13 mRNA) was “upregulated” and the “time of peak CD13 mRNA expression” value (CD13 mRNA) was “around 48 hours”.

With `CC(C)C[C@H](NC(=O)[C@@H](O)[C@H](N)Cc1ccccc1)C(=O)O` [Bestatin, bestatin] the “RA FLS migration in wound healing assay (relative wound density, ratio to untreated)” value (RA FLS [3]) was “not found to inhibit FLS migration” and the “RA FLS cell growth (change in confluence, ratio to untreated FLS)” value (RA FLS [4]) was “significant slowing of cell growth”.

In the case of “recombinant human interleukin-17 [IL-17]”, the “CD13 mRNA in RA FLS, ratio” value (CD13 mRNA) is reported as “upregulated” and the “time of peak CD13 mRNA expression” value (CD13 mRNA) is reported as “around 48 hours”.

`CNC(=O)[C@H](Cc1c[nH]c2ccccc12)NC(=O)[C@@H](CC(=O)NO)CC(C)C` [GM6001] was tested, and the “CD13 in lysates of GM6001-treated cells” value (FLS) was “significantly increased”, the “release of CD13 into the culture supernatant (in words)” value (FLS; serum-free media with 1 ng/ml IL-1 and 10 ng/ml TNFα) was “prevented the release of CD13” and the “CD13 in FLS cell lysates (change, in words)” value (RA FLS [1]; FLS cultures, serum-free media with protease inhibitor) was “No significant difference”. For the same compound, the “reduction of CD13 protein found in the supernatant” value (RA FLS [1]; FLS cultures, serum-free media, GM6001 25 μM, CD13 ELISA) was 93.62±4.78% and the “block of CD13 release from FLS (in words)” value (RA FLS [1]; protease inhibitors at established working concentrations) was “found to block CD13 release”.

With `CCCCC[C@H](CC(=O)NO)C(=O)N[C@H](C(=O)N1CCC[C@H]1CO)C(C)C` [actinonin] the “RA FLS migration in wound healing assay (relative wound density, ratio to untreated)” value (RA FLS [3]) was “significant decrease”, the “RA FLS cell growth (change in confluence, ratio to untreated FLS)” value (RA FLS [4]) was “strongest inhibitor of cell proliferation” and the “RA FLS cell growth (change in confluence, ratio to untreated FLS)” value (RA FLS [4]; listed as Actinonin) was “significant slowing of cell growth”.

For “recombinant human tumor necrosis factor-α [TNFα]”, the “CD13 mRNA in RA FLS, ratio” value (CD13 mRNA) was “upregulated” and the “time of peak CD13 mRNA expression” value (CD13 mRNA) was “around 48 hours”.

With aprotinin the “increase in CD13 expression in FLS cell lysates” value (RA FLS [1]; Aprotinin 100 nM) was 22.17±6.18%.
